Values of other authors as cited in patent US20260209855A1, “COMPOSITIONS AND METHODS FOR DETECTION AND TREATMENT OF PROSTATE CANCER” (The Regents of the University of California, priority 2022, published 2026).

How the values were obtained:
PCa = details: result in words
[1] = test system: benign prostatic hyperplasia (BPH); details: patients with BPH and AI, treatment prior to BPH diagnosis; result in words
PCa patients = details: clinical trials; result in words

For bevacizumab, the “Clinical trial results in the treatment of PCa” value (PCa) is given as “conflicting results”.

In the case of `CN(Cc1cnc2nc(N)nc(N)c2n1)c1ccc(C(=O)N[C@@H](CCC(=O)O)C(=O)O)cc1` [methotrexate], the “Likelihood to develop BPH” value [1] is listed as “did not have this effect”.

B1: siltuximab (antibody, chains of the INN, looked up, V domains shown)
VH: EVQLVESGGKLLKPGGSLKLSCAASGFTFSSFAMSWFRQSPEKRLEWVAEISSGGSYTYYPDTVTGRFTISRDNAKNTLYLEMSSLRSEDTAMYYCARGLWGYYALDYWGQGTSVTVSS
VL: QIVLIQSPAIMSASPGEKVTMTCSASSSVSYMYWYQQKPGSSPRLLIYDTSNLASGVPVRFSGSGSGTSYSLTISRMEAEDAATYYCQQWSGYPYTFGGGTKLEIK
notes: An IL-6 antagonist tested in clinical trials in PCa patients
In the case of B1, the “Clinical efficacy in PCa patients” value (PCa patients) is given as “no clinical efficacy”.
